Experiments:
Test in all cases: biochemical
Parameters in all cases: KINOMEscan competition binding panel (Eurofins DiscoverX), single concentration, percent inhibition
Conditions in all cases: read-out: 15 at 1 µM % inhibition
HIPK4 = HIPK4 (Homo sapiens, UniProt Q8NE63)
Procedure, shortened: (§1)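 Binding was profiled in the KINOMEscan panel of over 400 human kinases, with each compound tested at a single concentration of 1 µM to map selectivity.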

GAK = GAK (Homo sapiens, UniProt O14976)
Procedure, shortened: as §1

PLK1 = PLK1 (Homo sapiens, UniProt P53350)
Procedure, shortened: as §1

LOK = biological target: T1, LOK (Homo sapiens, UniProt O94804)
T1 construct: gene STK10
T1 sequence (O94804 whole entry): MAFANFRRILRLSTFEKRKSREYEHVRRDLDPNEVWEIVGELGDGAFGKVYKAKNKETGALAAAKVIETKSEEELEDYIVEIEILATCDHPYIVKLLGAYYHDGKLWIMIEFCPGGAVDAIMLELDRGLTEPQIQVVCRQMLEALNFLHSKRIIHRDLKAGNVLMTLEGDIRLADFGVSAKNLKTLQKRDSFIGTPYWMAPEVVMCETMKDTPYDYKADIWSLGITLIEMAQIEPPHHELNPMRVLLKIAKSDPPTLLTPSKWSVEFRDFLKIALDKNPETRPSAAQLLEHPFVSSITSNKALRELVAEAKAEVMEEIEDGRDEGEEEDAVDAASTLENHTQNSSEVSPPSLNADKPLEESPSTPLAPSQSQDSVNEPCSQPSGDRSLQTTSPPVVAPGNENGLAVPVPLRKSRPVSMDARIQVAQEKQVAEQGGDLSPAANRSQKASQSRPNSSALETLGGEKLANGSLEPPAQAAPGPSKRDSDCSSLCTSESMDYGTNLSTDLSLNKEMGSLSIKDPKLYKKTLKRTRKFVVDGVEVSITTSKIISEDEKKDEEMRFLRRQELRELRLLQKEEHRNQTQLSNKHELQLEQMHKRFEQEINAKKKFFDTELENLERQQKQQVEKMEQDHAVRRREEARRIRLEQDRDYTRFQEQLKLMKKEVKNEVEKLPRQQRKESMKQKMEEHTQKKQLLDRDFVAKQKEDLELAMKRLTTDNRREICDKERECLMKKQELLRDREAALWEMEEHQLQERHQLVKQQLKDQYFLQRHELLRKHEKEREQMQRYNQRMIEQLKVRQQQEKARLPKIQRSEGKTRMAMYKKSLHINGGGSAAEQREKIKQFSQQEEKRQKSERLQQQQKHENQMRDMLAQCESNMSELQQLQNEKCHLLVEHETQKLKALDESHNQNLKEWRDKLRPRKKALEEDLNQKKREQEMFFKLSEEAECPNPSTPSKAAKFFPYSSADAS
Procedure, shortened: as §1

MARK4 = MARK4 (Homo sapiens, UniProt Q96L34)
Procedure, shortened: as §1

CLK2 = CLK2 (Homo sapiens, UniProt P49760)
Sequence of CLK2 (P49760 whole entry): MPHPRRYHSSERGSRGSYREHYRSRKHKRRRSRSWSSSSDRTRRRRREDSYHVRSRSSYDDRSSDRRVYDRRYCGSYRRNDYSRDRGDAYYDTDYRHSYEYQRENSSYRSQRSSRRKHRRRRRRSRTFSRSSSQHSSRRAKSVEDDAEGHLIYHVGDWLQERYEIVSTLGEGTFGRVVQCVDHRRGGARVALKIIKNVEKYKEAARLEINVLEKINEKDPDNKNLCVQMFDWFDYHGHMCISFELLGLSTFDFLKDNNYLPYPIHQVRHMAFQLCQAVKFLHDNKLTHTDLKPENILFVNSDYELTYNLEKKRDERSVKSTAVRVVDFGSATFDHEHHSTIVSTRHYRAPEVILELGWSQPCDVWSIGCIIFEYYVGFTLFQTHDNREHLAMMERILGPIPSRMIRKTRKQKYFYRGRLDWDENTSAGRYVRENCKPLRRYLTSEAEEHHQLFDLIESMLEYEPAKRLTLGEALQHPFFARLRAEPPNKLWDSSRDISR
Procedure, shortened: as §1

EPHA2 = EPHA2 (Homo sapiens, UniProt P29317)
Procedure, shortened: as §1

[1] = biological target: T2, JAK3(JH1domain-catalytic) (Homo sapiens, UniProt P52333)
T2 construct: JH1domain-catalytic
Procedure, shortened: as §1

BIKE = biological target: T3, BIKE (Homo sapiens, UniProt Q9NSY1)
T3 construct: gene BMP2K
Procedure, shortened: as §1

EGFR = EGFR (Homo sapiens, UniProt P00533)
Sequence of EGFR (P00533 whole entry): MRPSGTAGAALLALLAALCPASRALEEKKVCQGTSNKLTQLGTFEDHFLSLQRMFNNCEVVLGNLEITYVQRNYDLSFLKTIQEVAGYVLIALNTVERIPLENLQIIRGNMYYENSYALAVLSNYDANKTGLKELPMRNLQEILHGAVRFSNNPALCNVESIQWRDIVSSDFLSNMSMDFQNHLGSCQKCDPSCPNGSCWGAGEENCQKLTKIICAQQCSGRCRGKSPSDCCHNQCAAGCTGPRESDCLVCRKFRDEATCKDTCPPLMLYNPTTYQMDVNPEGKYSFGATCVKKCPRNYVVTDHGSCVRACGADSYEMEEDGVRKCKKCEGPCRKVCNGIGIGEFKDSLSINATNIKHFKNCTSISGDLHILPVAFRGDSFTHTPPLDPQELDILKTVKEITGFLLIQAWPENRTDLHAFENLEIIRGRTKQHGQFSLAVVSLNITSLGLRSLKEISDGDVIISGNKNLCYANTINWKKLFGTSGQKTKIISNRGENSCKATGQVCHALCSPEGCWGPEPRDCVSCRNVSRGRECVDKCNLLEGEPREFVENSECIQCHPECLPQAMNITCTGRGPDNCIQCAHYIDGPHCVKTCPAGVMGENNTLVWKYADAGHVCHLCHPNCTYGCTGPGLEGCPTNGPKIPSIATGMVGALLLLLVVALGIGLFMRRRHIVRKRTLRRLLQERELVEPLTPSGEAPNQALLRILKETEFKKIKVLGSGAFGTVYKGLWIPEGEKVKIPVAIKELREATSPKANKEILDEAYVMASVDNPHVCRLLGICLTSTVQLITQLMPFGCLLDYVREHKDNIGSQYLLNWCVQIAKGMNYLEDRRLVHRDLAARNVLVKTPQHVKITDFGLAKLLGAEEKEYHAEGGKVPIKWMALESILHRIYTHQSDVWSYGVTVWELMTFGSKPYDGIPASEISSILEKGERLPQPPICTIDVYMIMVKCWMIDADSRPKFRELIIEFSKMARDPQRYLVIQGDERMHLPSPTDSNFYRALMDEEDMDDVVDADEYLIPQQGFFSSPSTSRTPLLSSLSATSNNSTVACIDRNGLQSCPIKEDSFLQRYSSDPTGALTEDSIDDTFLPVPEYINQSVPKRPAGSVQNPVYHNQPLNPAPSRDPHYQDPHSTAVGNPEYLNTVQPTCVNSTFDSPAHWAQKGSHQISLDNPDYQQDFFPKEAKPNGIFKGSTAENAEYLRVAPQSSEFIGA
Procedure, shortened: as §1

BRSK2 = BRSK2 (Homo sapiens, UniProt Q8IWQ3)
Procedure, shortened: as §1

GRK1 = GRK1 (Homo sapiens, UniProt Q15835)
Procedure, shortened: as §1

TSSK3 = TSSK3 (Homo sapiens, UniProt Q96PN8)
Sequence of TSSK3 (Q96PN8 whole entry): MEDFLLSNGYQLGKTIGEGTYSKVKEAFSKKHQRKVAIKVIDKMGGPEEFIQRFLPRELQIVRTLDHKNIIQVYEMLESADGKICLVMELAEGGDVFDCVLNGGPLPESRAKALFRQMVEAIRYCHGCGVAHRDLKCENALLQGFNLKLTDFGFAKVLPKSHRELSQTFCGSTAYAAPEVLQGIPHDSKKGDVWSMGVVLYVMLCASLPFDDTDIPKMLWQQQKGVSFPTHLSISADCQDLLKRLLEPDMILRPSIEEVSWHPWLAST
Procedure, shortened: as §1

ICK = biological target: T4, ICK (Homo sapiens, UniProt Q9UPZ9)
T4 construct: gene CILK1
Procedure, shortened: as §1

PAK6 = PAK6 (Homo sapiens, UniProt Q9NQU5)
Procedure, shortened: as §1

STK33 = STK33 (Homo sapiens, UniProt Q9BYT3)
Sequence of STK33 (Q9BYT3 whole entry): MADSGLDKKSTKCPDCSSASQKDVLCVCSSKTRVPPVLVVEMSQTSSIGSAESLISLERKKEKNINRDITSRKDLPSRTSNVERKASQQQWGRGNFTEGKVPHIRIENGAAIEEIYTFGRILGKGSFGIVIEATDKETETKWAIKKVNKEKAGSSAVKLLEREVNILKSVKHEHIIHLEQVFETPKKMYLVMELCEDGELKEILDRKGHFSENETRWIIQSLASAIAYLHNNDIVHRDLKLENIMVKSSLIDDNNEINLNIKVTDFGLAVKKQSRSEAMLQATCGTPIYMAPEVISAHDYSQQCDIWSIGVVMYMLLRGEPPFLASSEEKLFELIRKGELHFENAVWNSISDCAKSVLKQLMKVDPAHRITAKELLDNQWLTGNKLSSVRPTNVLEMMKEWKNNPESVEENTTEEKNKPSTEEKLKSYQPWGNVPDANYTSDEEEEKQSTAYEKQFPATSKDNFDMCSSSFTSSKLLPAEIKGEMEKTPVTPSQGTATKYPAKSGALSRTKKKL
Procedure, shortened: as §1

PRKG1 = PRKG1 (Homo sapiens, UniProt Q13976)
Sequence of PRKG1 (Q13976 whole entry): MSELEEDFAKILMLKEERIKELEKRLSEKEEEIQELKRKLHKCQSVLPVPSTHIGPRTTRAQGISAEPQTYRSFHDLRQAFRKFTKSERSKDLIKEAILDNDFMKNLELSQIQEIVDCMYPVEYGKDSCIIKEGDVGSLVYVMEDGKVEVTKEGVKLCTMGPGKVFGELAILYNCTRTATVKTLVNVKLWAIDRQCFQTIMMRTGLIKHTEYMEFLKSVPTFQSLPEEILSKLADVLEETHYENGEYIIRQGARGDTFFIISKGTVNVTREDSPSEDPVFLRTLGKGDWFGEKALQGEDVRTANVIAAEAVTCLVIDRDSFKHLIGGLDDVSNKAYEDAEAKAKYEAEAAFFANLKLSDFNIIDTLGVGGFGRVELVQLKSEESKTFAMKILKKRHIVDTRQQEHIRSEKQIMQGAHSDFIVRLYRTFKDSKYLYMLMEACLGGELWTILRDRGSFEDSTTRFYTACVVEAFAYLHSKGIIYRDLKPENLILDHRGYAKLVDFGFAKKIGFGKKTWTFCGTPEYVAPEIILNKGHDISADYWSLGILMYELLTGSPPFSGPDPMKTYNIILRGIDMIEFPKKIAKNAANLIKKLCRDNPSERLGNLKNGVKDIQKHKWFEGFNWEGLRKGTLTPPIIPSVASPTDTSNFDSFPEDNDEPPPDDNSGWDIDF
Procedure, shortened: as §1

FER = FER (Homo sapiens, UniProt P16591)
Procedure, shortened: as §1

ACVR2A = ACVR2A (Homo sapiens, UniProt P27037)
Procedure, shortened: as §1

BMPR2 = BMPR2 (Homo sapiens, UniProt Q13873)
Procedure, shortened: as §1

PRKCE = PRKCE (Homo sapiens, UniProt Q02156)
Procedure, shortened: as §1

CDK9 = CDK9 (Homo sapiens, UniProt P50750)
Procedure, shortened: as §1

CDK11 = biological target: T5, CDK11 (Homo sapiens, UniProt Q9BWU1)
T5 construct: gene CDK19
Procedure, shortened: as §1

WNK3 = WNK3 (Homo sapiens, UniProt Q9BYP7)
Procedure, shortened: as §1

MST1R = MST1R (Homo sapiens, UniProt Q04912)
Procedure, shortened: as §1

Sequence of HIPK4 (Q8NE63 whole entry): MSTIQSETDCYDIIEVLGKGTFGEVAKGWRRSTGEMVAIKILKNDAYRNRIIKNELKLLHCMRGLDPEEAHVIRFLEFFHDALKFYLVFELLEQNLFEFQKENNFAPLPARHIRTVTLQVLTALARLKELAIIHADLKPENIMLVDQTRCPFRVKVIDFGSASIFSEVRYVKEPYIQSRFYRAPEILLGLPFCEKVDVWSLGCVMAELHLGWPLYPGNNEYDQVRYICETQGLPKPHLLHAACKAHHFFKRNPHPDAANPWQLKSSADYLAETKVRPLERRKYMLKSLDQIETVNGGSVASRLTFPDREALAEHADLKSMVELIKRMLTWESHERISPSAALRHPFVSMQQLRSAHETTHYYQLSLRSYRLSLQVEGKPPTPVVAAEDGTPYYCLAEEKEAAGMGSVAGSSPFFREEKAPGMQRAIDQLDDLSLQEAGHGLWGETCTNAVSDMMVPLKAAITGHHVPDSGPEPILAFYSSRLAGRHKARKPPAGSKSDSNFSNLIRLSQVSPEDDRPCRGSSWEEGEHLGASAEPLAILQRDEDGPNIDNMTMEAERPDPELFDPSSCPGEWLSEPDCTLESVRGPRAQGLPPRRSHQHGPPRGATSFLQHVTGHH

Molecule CNS(=O)(=O)c1ccc(N(C)C)c(Nc2nc(C)nc3cc(OC)c(OC)cc23)c1 [compound 15, 3-((6,7-dimethoxy-2-methylquinazolin-4-yl)amino)-4-(dimethylamino)-N-methylbenzenesulfonamide] has an inhibition at 1 µM (HIPK4) of 0%, an inhibition at 1 µM (GAK) of 78% and an inhibition at 1 µM (PLK1) of 0%. The inhibition at 1 µM (LOK) was 7%, the inhibition at 1 µM (MARK4) was 0% and the inhibition at 1 µM (CLK2) was 0%. The inhibition at 1 µM (EPHA2) was 0%, the inhibition at 1 µM [1] was 10% and the inhibition at 1 µM (BIKE) was 0%. For the same molecule, the inhibition at 1 µM (EGFR) was 0%, the inhibition at 1 µM (BRSK2) was 21% and the inhibition at 1 µM (GRK1) was 20%. The inhibition at 1 µM (TSSK3) was 28%, the inhibition at 1 µM (ICK) was 12% and the inhibition at 1 µM (PAK6) was 3%. It also gave an inhibition at 1 µM (STK33) of 0%, an inhibition at 1 µM (PRKG1) of 0% and an inhibition at 1 µM (FER) of 0%. For the same molecule, the inhibition at 1 µM (ACVR2A) was 0%, the inhibition at 1 µM (BMPR2) was 21% and the inhibition at 1 µM (PRKCE) was 11%. It also gave an inhibition at 1 µM (CDK9) of 0%, an inhibition at 1 µM (CDK11) of 13% and an inhibition at 1 µM (WNK3) of 0%. It also gave an inhibition at 1 µM (MST1R) of 9%.
